From PubChem BioAssay AID2060899 (Molecular Pharmacology Branch, DTP, NCI, 2025)

Tested on: 565726-208-R1-J5-PDC complex spheroids, growth inhibition
Test: Anticancer human tumor 565726-208-R1-J5-PDC patient-derived pancreatic adenocarcinoma cell line growth inhibition [RAS]
Conditions: for IC50: curve of first compound; for viability, T/C: stronger effect = lower value; active means viability on the fitted dose curve at most 10% of control; inactive means the rest
Excerpt: RAS pathway inhibitors in Combinations in Complex Spheroids
A high-throughput screen of multi-cell type tumor spheroids was designed to identify active combinations of RAS pathway inhibitors and targeted small molecules. Complex spheroids include a stromal component modeled by human endothelial cells (HUVEC) and fibroblasts modeled by human mesenchymal stem cells (MSCs). The concentration ranges selected for each drug and investigational agent were based upon clinically achievable concentrations if the clinical Cmax of the agent was known.
Compounds. The drugs and investigational agents: abemaciclib (NSC768073), cobimetinib (NSC768068), divarasib (GDC6063, NSC841802), docetaxel (NSC628503), GDC-1971 (RLY-1971, NSC841576), gemcitabine (NSC613327), inavolisib (NSC800729), ipatasertib (NSC767898), KB-0742 (NSC834161), MRTX-1133 (NSC836407), osimertinib (NSC779217), RMC-4630 (NSC839698), RMC-6236 (NSC851965), RMC-6291 (NSC852671), Ro-3306 (NSC812927), sapanisertib (NSC764658), SN-38 (NSC673596), staurosporine (NSC755774), SY5609 (NSC837396), and tovorafenib (DAY101, NSC766906), were obtained from the National Cancer Institute (NCI) Developmental Therapeutics Program Chemical Repository. The FDA-approved anticancer drug set is available from the NCI Developmental Therapeutics Program. […] The stock solutions were prepared in dimethyl sulfoxide (DMSO, Sigma-Aldrich, St. Louis, MO, cat. D2650) at 800-fold the tested concentration and stored at -70 degrees C prior to their use. All drugs and investigational agents were tested over a range starting from a high concentration at or near the clinical Cmax and decreasing in half-log increments. If the clinical Cmax for an agent had not been determined, the highest concentration tested was 10 microM.
Cell Culture. All cells were maintained in an incubator at 37 degrees C and 5% CO2 with 95% humidity. The PDC lines were cultured according to standard operating procedures established by the NCI PDMR. All PDCs were thawed and cultured in Matrigel-coated flasks prepared with a working solution of 1X Ham's F-12 nutrient mix, without supplementation (Invitrogen, Waltham, MA, cat. 11765054), 100 U/mL penicillin-streptomycin (Invitrogen, cat. 15140122), and 2.5% Matrigel (Corning Inc., Corning, NY, cat. 354248) for the first three passages. The 362531-283-R-J2-PDC and 782815-120-R-J1-PDC lines were cultured in 6C/Colon 1B media, which includes advanced DMEM/F-12 (Thermo Fisher Scientific, cat. 12634028), 10 mM HEPES (Thermo Fisher Scientific, cat. 15630080), 1X GlutaMAX supplement (Thermo Fisher Scientific, cat. 35050061), 0.1 mg/mL primocin (InvivoGen, San Diego, CA, cat. ant-pm-2), 10% defined fetal bovine serum, heat inactivated (HyClone Laboratories Inc., Logan, UT, cat. SH30070.03HI), 50% L-WRN conditioned media (ATCC, cat. CRL-3276), 1.25 mM N-Acetyl-L-cysteine (Sigma-Aldrich, cat. A9165), 10 mM nicotinamide (Sigma-Aldrich, cat. N0636), 1X B-27 supplement (Thermo Fisher Scientific, cat. 17504044), 1X N-2 supplement (Thermo Fisher Scientific, cat. 17502048), 50 ng/mL human EGF (Thermo Fisher Scientific, cat. PHG0311), and 10 microM Y-27632 dihydrochloride (Tocris Bioscience, cat. 1254). The K12877-001-R-J1-PDC line was cultured in 6I media, which includes all 6C/Colon 1B media plus 10 ng/mL human FGF-10 (PeproTech, cat. 100-26), 1 ng/mL human FGF-2 (PeproTech, cat. 100-18B), 1 µM prostaglandin E2 (Tocris Bioscience, cat. 2296), […] hydrocortisone (Sigma-Aldrich, cat. H4001), and […] bovine insulin (Sigma-Aldrich, cat. I6634). The K86415-001-R-J1-PDC line was cultured in 6D media, which includes all 6C/Colon 1B media components minus the L-WRN conditioned media. The 485176-168-R4-J1-PDC was cultured in PANC media, which includes all 6C/Colon 1B media plus 100 ng/mL human FGF-10 (PeproTech, cat. 100-26), 500 nM SB-431542 (Selleckchem, cat. S1067), and 10 nM gastrin (Tocris Bioscience, cat. 3006). […]
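Further: spheroids exposed to compounds for seven days before readout.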

CC1(O)CCCC1n1c(=O)c(C(F)F)cc2cnc(NC3CCN(S(C)(=O)=O)CC3)nc21 (configuration not stated) + CCn1c(-c2cc(N3CCN(C)CC3)cnc2C(C)OC)c2c3cc(ccc31)-c1csc(n1)CC(NC(=O)C1CC1C)C(=O)N1CCCC(N1)C(=O)OCC(C)(C)C2
active: viability, T/C (second compound 0.000949 µM, first compound 10 µM) 3.21% | viability, T/C (second compound 0.003 µM, first compound 10 µM) 2.82% | viability, T/C (second compound 0.00949 µM, first compound 10 µM) 3.34% | viability, T/C (second compound 0.03 µM, first compound 10 µM) 3.06% | viability, T/C (second compound 0.0949 µM, first compound 10 µM) 2.88% | viability, T/C (second compound 0.3 µM, first compound 10 µM) 3.06%
1010 nM: IC50 (second compound 0.000949 µM)
< 31.6 nM: IC50 (second compound 0.003 µM) | IC50 (second compound 0.00949 µM) | IC50 (second compound 0.03 µM) | IC50 (second compound 0.0949 µM) | IC50 (second compound 0.3 µM)
inactive: viability, T/C (second compound 0.000949 µM, first compound 0.0316 µM) 58% | viability, T/C (second compound 0.000949 µM, first compound 0.1 µM) 46.6% | viability, T/C (second compound 0.000949 µM, first compound 0.316 µM) 47.6% | viability, T/C (second compound 0.000949 µM, first compound 1 µM) 50.4% | viability, T/C (second compound 0.000949 µM, first compound 3.16 µM) 33.1% | viability, T/C (second compound 0.003 µM, first compound 0.0316 µM) 48.5% | viability, T/C (second compound 0.003 µM, first compound 0.1 µM) 45.7% | viability, T/C (second compound 0.003 µM, first compound 0.316 µM) 43.9% | viability, T/C (second compound 0.003 µM, first compound 1 µM) 37.1% | viability, T/C (second compound 0.003 µM, first compound 3.16 µM) 26.5% | viability, T/C (second compound 0.00949 µM, first compound 0.0316 µM) 41.4% | viability, T/C (second compound 0.00949 µM, first compound 0.1 µM) 36.7% | viability, T/C (second compound 0.00949 µM, first compound 0.316 µM) 37.6% | viability, T/C (second compound 0.00949 µM, first compound 1 µM) 31.7% | viability, T/C (second compound 0.00949 µM, first compound 3.16 µM) 25% | viability, T/C (second compound 0.03 µM, first compound 0.0316 µM) 34.2% | viability, T/C (second compound 0.03 µM, first compound 0.1 µM) 29.8% | viability, T/C (second compound 0.03 µM, first compound 0.316 µM) 31.3% | viability, T/C (second compound 0.03 µM, first compound 1 µM) 31.2% | viability, T/C (second compound 0.03 µM, first compound 3.16 µM) 17.3% | viability, T/C (second compound 0.0949 µM, first compound 0.0316 µM) 25.7% | viability, T/C (second compound 0.0949 µM, first compound 0.1 µM) 25.4% | viability, T/C (second compound 0.0949 µM, first compound 0.316 µM) 26% | viability, T/C (second compound 0.0949 µM, first compound 1 µM) 24.2% | viability, T/C (second compound 0.0949 µM, first compound 3.16 µM) 15.3% | viability, T/C (second compound 0.3 µM, first compound 0.0316 µM) 19.9% | viability, T/C (second compound 0.3 µM, first compound 0.1 µM) 25.7% | viability, T/C (second compound 0.3 µM, first compound 0.316 µM) 22% | viability, T/C (second compound 0.3 µM, first compound 1 µM) 24.2% | viability, T/C (second compound 0.3 µM, first compound 3.16 µM) 14.6%
